This note sets out measurements from patent publication US20240228491A1, “METHIONINE ADENOSYLTRANSFERASE INHIBITOR, PREPARATION METHOD THEREFOR AND APPLICATION THEREOF” (SCINNOHUB PHARMACEUTICAL CO., LTD., priority 2021, published 2024).

Structures are written as SMILES.

One assay deals with KP-4 cells. The experiment in a line: Inhibitory activity test of KP-4 cells. It counts as cell-based. To be noted: Homo sapiens, 144 h incubation, read-out: KP-4 cell inhibitory activity IC50. The procedure: On day 1, cell seeding: after digestion of the cells with trypsin, the cells were resuspended to 1*10^4/mL with RPMI1640 complete medium (HyClone Company, Cat. No. SH30809.01) supplemented with 10% FBS (Gibco, 10099141C), mixed evenly, and added into the 96-well plate at 100 μL/well. The plate was put back to the incubator for the adherent growth of cells. On day 2, the addition of the compounds to be tested: 100 μL of the complete medium containing the compounds (the concentration of the compound in the medium was formulated as follows: 3-fold gradient dilution from 60 μM, 10 concentration gradients in total) was added, incubated for 144 hours at 37° C., 5% CO2. On day 8, the cell culture plates were taken out from incubator and equilibrated to room temperature, excess medium was pipetted from the wells so that 50 μL of supernatant was retained, and 50 μL of CellCounting-Lite 2.0 (Nanjing Vazyme Biotech Co., Ltd., Cat. No. DD1101) reagent was added per well, and the cells were fully lysed by shaking at room temperature for 10 min, and incubated for 5 min to detect the fluorescence intensity.
(§1) % Inhibition=100−(signal of the well with the compound to be tested−signal of the well with only medium and free of cells)/(signal of the well with cells but without addition of the compound−signal of the well with only medium and free of cells)×100.
The log value of concentration was used as the X-axis and % Inhibition was used as the Y-axis, so as to fit the dose-effect curve and calculate the IC50 value using nonlinear regression (dose response−variable slope) in the analysis software GraphPad Prism 8.

The subject of another assay is HCT116 MTAP-/- cells. The experiment in a line: Activity test of HCT116 MTAP gene homozygous deletion cells (CellTiter-Glo). It counts as cell-based. To be noted: Homo sapiens, HCT-116, 120 h incubation, read-out: HCT116 MTAP-/- Cell IC50. The procedure: On day 1, cell seeding: after digestion of the cells with trypsin, the cells were resuspended to the desired density with the complete medium (RPMI-1640 supplemented with 10% FBS; the brand of FBS is EXCELL, Cat. No. FND500; the brand of RPMI-1640 is ATCC, Cat. No. 30-2001), mixed evenly, and added into the 96-well plate at 100 μL/well with a cell density of 1000-3000 cells per well. The plate was put back to the incubator for the adherent growth of cells. On day 2, the addition of the compounds to be tested: before the addition of the compounds, the cells were starved with serum-free medium for 4 h, then the complete medium containing the corresponding concentration of compounds was added thereto, and the cells were incubated at 37° C., 5% CO2 for 120 h. On day 7, the cell culture plates were taken out from incubator and equilibrated to room temperature. 50 μL of CellTiter-Glo (Promega Company, Cat. No. G7571) reagent was added per well, and the cells were fully lysed by shaking at room temperature for 2 min, and then incubated for another 60 min to detect the fluorescence intensity. Calculation formula:
as §1
The fitting dose-effect curve of the analysis software GraphPad Prism 5 was used to give IC50 values of the individual compounds against cellular activity.
A general note: In ATP-based viability assays light output follows the ATP content of the culture.

The target of the next assay is MAT2a (Homo sapiens (Human), UniProt P31153). The experiment in a line: MAT2a enzymatic activity test (colorimetric assay). The class given is biochemical. To be noted: OD620, 150 min reaction, read-out: IC50 against MAT2a. How it is done: The Colorimetric assay method was used to detect the IC50 value of the tested compounds on MAT2a.
Chain of MAT2a (P31153 whole entry): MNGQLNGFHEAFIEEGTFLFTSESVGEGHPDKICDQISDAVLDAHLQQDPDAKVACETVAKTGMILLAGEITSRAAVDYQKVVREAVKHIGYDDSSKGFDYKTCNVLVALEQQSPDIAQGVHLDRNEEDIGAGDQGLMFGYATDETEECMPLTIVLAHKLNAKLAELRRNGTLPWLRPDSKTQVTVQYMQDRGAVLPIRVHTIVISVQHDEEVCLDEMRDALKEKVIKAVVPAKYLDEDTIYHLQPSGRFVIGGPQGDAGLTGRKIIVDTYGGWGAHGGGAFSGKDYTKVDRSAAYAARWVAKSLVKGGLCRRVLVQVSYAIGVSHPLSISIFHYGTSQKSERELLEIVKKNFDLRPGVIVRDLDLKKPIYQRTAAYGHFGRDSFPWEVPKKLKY
The specific steps were as follows: The compounds having the test starling concentration of 1 μM or 10 μM were diluted into 10 concentration points in a 3-fold gradient. 250 nL of the solutions of the compounds to be tested with 10 different concentrations were taken and added into a 384 well plate for later use. 20 μg/mL of MAT2a enzyme solution was prepared with Assay buffer (50 mM Tris, 50 mM KCl, 10 mM MgCl2, 0.05% polyoxyethylene lauryl ether, pH 8.0). 15 μL of the MAT2a enzyme solution at 20 μg/mL was add into the wells of the compounds to be tested at different concentrations; and 15 μL of Assay buffer was added into the negative control well. An incubation was carried out for 15 minutes after shaking for mixing well. A mixed substrate solution (comprising 400 μM ATP and 600 μM L-Methionine) was prepared with Assay buffer. 10 μL of the mixed substrate solution was added to the positive control well, the compound to be tested well, and the negative control well, respectively, and the reaction began, for a reaction time of 150 min. Then, 50 μL of the reaction stop solution (BIOMOL Green™ Reagent Enzo lifesciences, Cargo No. BML-AK111-1000) was added to stop the reaction, followed by being centrifuged at 1000 rpm for 60 s and then being incubated for 15 min. OD620 was read and data were processed.
By using the log value of the concentration as the X-axis and the inhibition % as the Y-axis, the IC50 value of each compound against enzyme activity was obtained through employing the log(inhibitor) vs. response-Variable slope fitting dose-effect curve of the analysis software GraphPad Prism 5.

For the compound `COc1ccc(-c2c(N)c3ccc(C(F)(F)F)nc3n(-c3ccc(Cl)cc3)c2=O)cc1` [Example 24], the IC50 amounted to 100 nM in the assay on KP-4 cells, 11.5 nM with HCT116 MTAP-/- cells and 15.6 nM on MAT2a.

Regarding `Nc1c(-c2ccc3c(c2)NC(=O)CO3)c(=O)n(-c2ccc(Cl)cc2)c2nc(C(F)(F)F)ccc12` [Example 54], the values for the IC50 with KP-4 cells and at MAT2a were 960 nM and 16.2 nM, respectively.

On to `Nc1c(-c2ccco2)c(=O)n(-c2ccc(Cl)cc2)c2nc(C(F)(F)F)ccc12` [Example 30, 4-amino-1-(4-chlorophenyl)-3-(furan-2-yl)-7-(trifluoromethyl)-1,8-naphthyridin-2(1H)-one], for which the figures for the IC50 with KP-4 cells, with HCT116 MTAP-/- cells and at MAT2a were 550 nM, 22.3 nM and 13.4 nM, respectively.

In the case of `COc1cc(-c2c(N)c3ccc(C(F)(F)F)nc3n(-c3ccc(Cl)cc3)c2=O)ccn1` [Example 56], the IC50 in the assay on KP-4 cells was determined as 1110 nM; with HCT116 MTAP-/- cells it was 17.8 nM; on MAT2a, 14.5 nM.

For `Nc1c(-c2ccc3nnccc3c2)c(=O)n(-c2ccc(Cl)cc2)c2nc(C(F)(F)F)ccc12` [Example 55], the IC50 came out at 500 nM with KP-4 cells, 23.3 nM with HCT116 MTAP-/- cells and 16.3 nM on MAT2a.

In the case of `Nc1ccc(-c2c(N)c3ccc(C(F)(F)F)nc3n(-c3ccc(Cl)cc3)c2=O)cc1` [Example 43], the IC50 in the assay on KP-4 cells is 480 nM; at MAT2a it was 22 nM.

Take `Nc1c(-c2ccc3ncccc3c2)c(=O)n(-c2ccc(Cl)cc2)c2nc(C(F)(F)F)ccc12` [Example 45]: the IC50 was 190 nM with KP-4 cells, 6.37 nM in the assay with HCT116 MTAP-/- cells and 14.8 nM at MAT2a.

Turning to `Cn1nnc2ccc(-c3c(N)c4ccc(C(F)(F)F)nc4n(-c4ccc(Cl)cc4)c3=O)cc21` [Example 63], the IC50 in the assay on HCT116 MTAP-/- cells turned out to be 21.5 nM; on MAT2a, 17.8 nM.

Regarding `CNc1c(-c2nnco2)c(=O)n(-c2ccccc2)c2nc(C(F)(F)F)ccc12` [Example 6, 4-(methylamino)-3-(1,3,4-oxadiazol-2-yl)-1-phenyl-7-(trifluoromethyl)-1,8-naphthyridin-2(1H)-one], the IC50 in the assay on HCT116 MTAP-/- cells came to 494 nM; on MAT2a, 40.5 nM.

In the case of `Nc1c(-c2ccc3c(c2)OCO3)c(=O)n(-c2ccc(Cl)cc2)c2nc(C(F)(F)F)ccc12` [Example 19], the figures for the IC50 in the assay on KP-4 cells, in the assay with HCT116 MTAP-/- cells and on MAT2a were 890 nM, 13.1 nM and 12.3 nM, respectively.

Take `Nc1c(-c2ccc3c(c2)OCCO3)c(=O)n(-c2ccc(Cl)cc2)c2nc(C(F)(F)F)ccc12` [Example 53]: the IC50 came out at 240 nM with KP-4 cells, 21.2 nM in the assay on HCT116 MTAP-/- cells and 14.4 nM at MAT2a.

As for `Nc1c(-c2ccncn2)c(=O)n(-c2ccc(Cl)cc2)c2nc(C(F)(F)F)ccc12` [Example 39], the IC50 worked out at 410 nM with KP-4 cells and 19.8 nM at MAT2a.

In the case of `Nc1c(-n2cncn2)c(=O)n(-c2ccc(Cl)cc2)c2nc(C(F)(F)F)ccc12` [Example 41], the results for the IC50 with KP-4 cells and on MAT2a were 3080 nM and 18.4 nM, respectively.

For `Nc1c(-c2ccc3nccnc3n2)c(=O)n(-c2ccc(Cl)cc2)c2nc(C(F)(F)F)ccc12` [Example 67], the IC50 with KP-4 cells was found to be 750 nM; in the assay with HCT116 MTAP-/- cells it was 16.3 nM; on MAT2a it was 18.1 nM.

As to `Nc1c(-c2ccc3ncoc3c2)c(=O)n(-c2ccc(Cl)cc2)c2nc(C(F)(F)F)ccc12` [Example 22], the IC50 in the assay with KP-4 cells is 730 nM; in the assay on HCT116 MTAP-/- cells, 20.9 nM; at MAT2a, 15 nM.

As for `Nc1c(-n2cccc2)c(=O)n(-c2ccc(Cl)cc2)c2nc(C(F)(F)F)ccc12` [Example 3, 4-amino-1-(4-chlorophenyl)-3-(1H-pyrrol-1-yl)-7-(trifluoromethyl)-1,8-naphthyridin-2(1H)-one], the values for the IC50 in the assay on KP-4 cells, with HCT116 MTAP-/- cells and on MAT2a were 170 nM, 12.7 nM and 12.7 nM, respectively.

`CNc1c(-c2ncco2)c(=O)n(-c2ccccc2)c2nc(C(F)(F)F)ccc12` [Example 7, 4-(methylamino)-3-(oxazol-2-yl)-1-phenyl-7-(trifluoromethyl)-1,8-naphthyridin-2(1H)-one]: the IC50 in the assay on HCT116 MTAP-/- cells stood at 800 nM; at MAT2a, 37.9 nM.

In the case of `CNc1c(-c2ccc3ncn(C)c3c2)c(=O)n(-c2ccccc2)c2nc(C(F)(F)F)ccc12` [Example 27], the IC50 came to 1620 nM in the assay with KP-4 cells, 231 nM with HCT116 MTAP-/- cells and 17.5 nM at MAT2a.

Take `CNc1c(-n2cccn2)c(=O)n(-c2ccccc2)c2nc(C(F)(F)F)ccc12` [Example 15, 4-(methylamino)-1-phenyl-3-(1H-pyrazol-1-yl)-7-(trifluoromethyl)-1,8-naphthyridin-2(1H)-one]: the IC50 in the assay with KP-4 cells amounted to 9730 nM; in the assay with HCT116 MTAP-/- cells, 345 nM; on MAT2a, 23.2 nM.

As for `Nc1c(-c2ccc3nccnc3c2)c(=O)n(-c2ccc(Br)cc2)c2nc(C(F)(F)F)ccc12` [Example 83], the IC50 in the assay with HCT116 MTAP-/- cells was 9.12 nM; on MAT2a, 17.2 nM.

For the compound `Cn1cnc2ccc(-c3c(N)c4ccc(C(F)(F)F)nc4n(-c4ccc(Cl)cc4)c3=O)cc21` [Example 23], the results for the IC50 in the assay with KP-4 cells, in the assay with HCT116 MTAP-/- cells and at MAT2a were 610 nM, 23 nM and 16.5 nM, respectively.

In the case of `CS(=O)(=O)CCn1ncc2cc(-c3c(N)c4ccc(C(F)(F)F)nc4n(-c4ccc(Cl)cc4)c3=O)ccc21` [Example 52], the IC50 is 760 nM in the assay on KP-4 cells and 16.2 nM at MAT2a.

`Nc1c(-n2cccn2)c(=O)n(-c2ccc(Cl)cc2)c2nc(C(F)(F)F)ccc12` [Example 38]: the IC50 in the assay on KP-4 cells came out at 910 nM; at MAT2a, 18.1 nM.

Turning to `COc1cc(-c2c(N)c3ccc(C(F)(F)F)nc3n(-c3ccc(C)cc3)c2=O)ccn1` [Example 87], the IC50 came out at 9.77 nM with HCT116 MTAP-/- cells and 15.4 nM on MAT2a.

Consider `Nc1c(-c2ccc(F)cc2)c(=O)n(-c2ccc(Cl)cc2)c2nc(C(F)(F)F)ccc12` [Example 42], for which the IC50 in the assay on KP-4 cells worked out at 480 nM; with HCT116 MTAP-/- cells, 8.38 nM; on MAT2a, 15 nM.

Take `CNc1c(-c2ccccc2)c(=O)n(-c2ccccc2)c2nc(C(F)(F)F)ccc12` [Example 13]: the IC50 in the assay with HCT116 MTAP-/- cells amounted to 638 nM; at MAT2a, 32 nM.

As for `CNc1c(-c2ccc(F)cc2)c(=O)n(-c2ccccc2)c2nc(C(F)(F)F)ccc12` [Example 26], the IC50 is 10200 nM in the assay on KP-4 cells, 617 nM with HCT116 MTAP-/- cells and 17.8 nM on MAT2a.
